Results taken from patent US6482829B2, “Substituted heterocyclic siprodecane compound active as an antagonist of neurokinin 1 receptor” (Hoffmann-La Roche Inc., priority 2000, dated 2002).

Target: human NK1 receptors (Homo sapiens, UniProt P25103)
Experiment: Affinity for the NK1 receptor, [3H]substance P displacement binding assay
Details: human NK1 receptors in CHO cells (Semliki virus expression system); [3H]substance P 0.6 nM; 60 min at room temperature
Protocol: The affinity of test compounds for the NK1 receptor was evaluated at human NK1 receptors in CHO cells infected with the human NK1 receptor (using the Semliki virus expression system) and radiolabelled with [^3H]substance P (final concentration 0.6 nM). Binding assays were performed in HEPES buffer (50 mM, pH 7.4) containing BSA (0.04%) leupeptin (8 μg/ml), MnCl2 (3 mM) and phosphoramidon (2 μM). Binding assays consisted of 250 μl of membrane suspension (1.25×10^5 cells/assay tube), […] of buffer of displacing agent and 125 μl of [^3H]substance P. Displacement curves were determined with at least seven concentrations of the compound. The assay tubes were incubated for 60 min at room temperature after which time the tube contents were rapidly filtered under vacuum through GF/C filters presoaked for 60 min with PEI (0.3%) with 2×2 ml washes of HEPES buffer (50 mM, pH 7.4). The radioactivity retained on the filters was measured by scintillation counting. All assays were performed in triplicate in at least 2 separate experiments.

Chain of human NK1 receptors (P25103 whole entry): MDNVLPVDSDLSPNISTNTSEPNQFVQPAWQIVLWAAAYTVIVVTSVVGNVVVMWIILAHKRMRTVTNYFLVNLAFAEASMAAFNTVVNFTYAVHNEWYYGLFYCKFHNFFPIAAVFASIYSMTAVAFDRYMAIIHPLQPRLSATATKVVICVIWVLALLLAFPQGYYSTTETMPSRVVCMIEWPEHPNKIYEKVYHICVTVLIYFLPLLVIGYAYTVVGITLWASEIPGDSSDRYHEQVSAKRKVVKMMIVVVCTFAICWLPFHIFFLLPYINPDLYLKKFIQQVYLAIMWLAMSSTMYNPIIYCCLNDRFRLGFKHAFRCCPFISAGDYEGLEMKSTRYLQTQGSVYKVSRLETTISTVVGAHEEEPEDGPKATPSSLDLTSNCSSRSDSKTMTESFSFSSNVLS

| pKi (affinity to the NK-1 receptor) | Molecule |
| --- | --- |
| 8.29 | Cc1ccccc1N1CN(Cc2cccnc2)C(=O)C12CCN(C(=O)c1cc(C(F)(F)F)cc(C(F)(F)F)c1)CC2 [Example 45, 8-(3,5-Bis-trifluoromethyl-benzoyl)-3-pyridin-3-yl-methyl-1-o-tolyl-1,3,8-triaza-spiro[4.5]decan-4-one] |
| 8.34 | Rac-8-(3,5-Bis-trifluoromethyl-benzoyl)-3-(2-methoxy-ethyl)-2-methyl-1-o-tolyl-1,3,8-triaza-spiro[4.5]decan-4-one [Example 137] |

Same assay, conditions: human NK1 receptors in CHO cells (Semliki virus expression system); [3H]substance P 0.6 nM; 60 min at room temperature; read-out: pKi (affinity to the NK-1 receptor) (converted)

| Molecule | Ki [nM] |
| --- | --- |
| COc1nc(OC)nc(N2CN(c3ccccc3)C3(CCN(C(=O)c4cc(C(F)(F)F)cc(C(F)(F)F)c4)CC3)C2=O)n1 [Example 6, 8-(3,5-Bis-trifluoromethyl-benzoyl)-3-(4,6-dimethoxy-[1,3,5]triazin-2-yl)-1-phenyl-1,3,8-triaza-spiro[4.5]decan-4-one] | 2.19 |
| O=C(c1cc(C(F)(F)F)cc(C(F)(F)F)c1)N1CCC2(CC1)C(=O)N(c1ncc(Cl)cc1Cl)CN2c1ccccc1 [Example 26, 8-(3,5-Bis-trifluoromethyl-benzoyl)-3-(3,5-dichloro-pyridin-2-yl)-1-phenyl-1,3,8-triaza-spiro[4.5]decan-4-one] | 33.9 |
| COc1nc(OC)nc(N2CN(c3ccc(Cl)c(Cl)c3)C3(CCN(C(=O)c4cc(C(F)(F)F)cc(C(F)(F)F)c4)CC3)C2=O)n1 [Example 39, 8-(3,5-Bis-trifluoromethyl-benzoyl)-1-(3,4-dichloro-phenyl)-3-(4,6-dimethoxy-[1,3,5]triazin-2-yl)-1,3,8-triaza-spiro[4.5]decan-4-one] | 93.3 |
| Cc1ccccc1N1CN(CCN2CCCC2)C(=O)C12CCN(C(=O)c1cc(C(F)(F)F)cc(C(F)(F)F)c1)CC2 [Example 58, 8-(3,5-Bis-trifluoromethyl-benzoyl)-3-(2-pyrrolidin-1-yl-ethyl)-1-o-tolyl-1,3,8-triaza-spiro[4.5]decan-4-one] | 8.32 |

Next, values leading:

| Ki [nM] | Molecule |
| --- | --- |
| 7.59 | CC1NC(=O)C2(CCN(C(=O)c3cc(C(F)(F)F)cc(C(F)(F)F)c3)CC2)N1c1ccccc1 (racemic) [Example 91, (rac)-8-(3,5-Bis-trifluoromethyl-benzoyl)-2-methyl-1-phenyl-1,3,8-triaza-spiro[4.5]decan-4-one] |
| 7.59 | Cc1ccccc1C1CNC(=O)C12CCN(C(=O)c1cc(C(F)(F)F)cc(C(F)(F)F)c1)CC2 (racemic) [Example 176, (rac)-8-(3,5-Bis-trifluoromethyl-benzoyl)-4-o-tolyl-2,8-diaza-spiro[4.5]decan-1-one] |
| 4.27 | CN1CN(c2ccccc2Cl)C2(CCN(C(=O)c3cc(C(F)(F)F)cc(C(F)(F)F)c3)CC2)C1=O [Example 70, 8-(3,5-Bis-trifluoromethyl-benzoyl)-1-(2-chloro-phenyl)-3-methyl-1,3,8-triaza-spiro[4.5]decan-4-one] |
| 11 | Cc1ccccc1C1=CN(C)C(=O)C12CCN(C(=O)c1cc(C(F)(F)F)cc(C(F)(F)F)c1)CC2 [Example 170, 8-(3,5-Bis-trifluoromethyl-benzoyl)-2-methyl-4-o-tolyl-2,8-diaza-spiro[4.5]dec-3-en-1-one] |

Test system: not given
Experiment: not given
Details: not given

| melting point [°C] | Molecule |
| --- | --- |
| 153 to 154 | O=C(c1cc(C(F)(F)F)cc(C(F)(F)F)c1)N1CCC2(CC1)C(=O)NC(=O)N2c1ccccc1Cl |
| 251 | O=C(c1cc(C(F)(F)F)cc(C(F)(F)F)c1)N1CCC2(CC1)C(=O)NCN2c1ccccc1 [Example 1, 8-(3,5-Bis-trifluoromethyl-benzoyl)-1-phenyl-1,3,8-triaza-spiro[4.5]decan-4-one] |
| 212 to 214 | O=C(c1cc(C(F)(F)F)cc(C(F)(F)F)c1)N1CCC2(CC1)C(=O)N(c1cc(Cl)ncn1)CN2c1ccccc1 [Example 61, 8-(3,5-Bis-trifluoromethyl-benzoyl)-3-(6-chloro-pyrimidin-4-yl)-1-phenyl-1,3,8-triaza-spiro[4.5]decan-4-one] |
| 235 to 236 | O=C(c1cc(C(F)(F)F)cc(C(F)(F)F)c1)N1CCC2(CC1)C(=O)NCN2c1cccc(Cl)c1 [Example 63, 8-(3,5-Bis-trifluoromethyl-benzoyl)-1-(3-chloro-phenyl)-1,3,8-triaza-spiro[4.5]decan-4-one] |
| 233 to 235 | O=C(c1cc(C(F)(F)F)cc(C(F)(F)F)c1)N1CCC2(CC1)C(=O)NCN2c1ccc(Cl)cc1 [Example 64, 8-(3,5-Bis-trifluoromethyl-benzoyl)-1-(4-chloro-phenyl)-1,3,8-triaza-spiro[4.5]decan-4-one] |
| 220 to 222 | O=C(c1cc(C(F)(F)F)cc(C(F)(F)F)c1)N1CCC2(CC1)C(=O)NCN2c1ccc(Cl)c(Cl)c1 [Example 65, 8-(3,5-Bis-trifluoromethyl-benzoyl)-1-(3,4-dichloro-phenyl)-1,3,8-triaza-spiro[4.5]decan-4-one] |
| 164 to 168 | Cc1ccccc1N1CNC(=O)C12CCN(C(=O)c1cc(C(F)(F)F)cc(C(F)(F)F)c1)CC2 [Example 66, 8-(3,5-Bis-trifluoromethyl-benzoyl)-1-o-tolyl-1,3,8-triaza-spiro[4.5]decan-4-one] |
| 157 to 159 | O=C(c1cc(C(F)(F)F)cc(C(F)(F)F)c1)N1CCC2(CC1)C(=O)NCN2c1ccccc1Cl [Example 67, 8-(3,5-Bis-trifluoromethyl-benzoyl)-1-(2-chloro-phenyl)-1,3,8-triaza-spiro[4.5]decan-4-one] |
